Test results published in ChEMBL document CHEMBL1201862, “PubChem BioAssay data set” (2004).
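Following 48 hours of exposure in 96-well plates, responses at five concentrations were used to interpolate endpoints linearly. At the GI50, growth is halved.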 The source made the active and inactive calls. Cut-off read from the data, not from the text of the source: active = GI50 up to about 1.1 µM and inactive = higher.

Experiments:
Assay in all cases: NCI anticancer screen, dose series, 48 h
[1] = system: OVCAR-8
[2] = system: M14
[3] = system: CCRF-CEM
[4] = system: HOP-62
[5] = system: LOX IMVI
[6] = system: MCF7
[7] = system: RXF 393
[8] = system: MOLT-4
[9] = system: OVCAR-4
[10] = system: SNB-75
[11] = system: SK-OV-3
[12] = system: SK-MEL-5
[13] = system: A549
[14] = system: NCI-H460
[15] = system: K562
[16] = system: NCI-H226
[17] = system: MDA-MB-435
[18] = system: SK-MEL-2
[19] = system: HL-60
[20] = system: Malme-3M
[21] = system: MDA-MB-231
[22] = system: SF-539
[23] = system: UO-31
[24] = system: EKVX
[25] = system: DU-145
[26] = system: HT-29
[27] = system: UACC-257
[28] = system: SN12C
[29] = system: MDA-N
[30] = system: SF-268
[31] = system: OVCAR-5
[32] = system: HCT-15
[33] = system: NCI-H23
[34] = system: TK-10
[35] = system: HCC 2998
[36] = system: IGROV-1
[37] = system: SK-MEL-28
[38] = system: KM12
[39] = system: RPMI-8226
[40] = system: ACHN
[41] = system: HOP-92
[42] = system: COLO 205
[43] = system: U-251
[44] = system: NCI/ADR-RES
[45] = system: BT-549
[46] = system: 786-0
[47] = system: SR
[48] = system: T47D
[49] = system: A498
[50] = system: SF-295
[51] = system: SW-620
[52] = system: NCI-H522
[53] = system: UACC-62
[54] = system: PC-3
[55] = system: HCT-116
[56] = system: Hs-578T
[57] = system: SNB-19
[58] = system: CAKI-1
[59] = system: OVCAR-3

## COc1ccccc1Nc1nc(N)nc(N)c1N=O
[1]
  GI50: > 100 µM (inactive)
[2]
  GI50: 64 µM (inactive)
[3]
  GI50: > 100 µM (inactive)
[4]
  GI50: > 100 µM (inactive)
[5]
  GI50: > 100 µM (inactive)
[6]
  GI50: > 100 µM (inactive)
[7]
  GI50: > 100 µM (inactive)
[8]
  GI50: > 100 µM (inactive)
[9]
  GI50: > 100 µM (inactive)
[10]
  GI50: > 100 µM (inactive)
[11]
  GI50: > 100 µM (inactive)
[12]
  GI50: > 100 µM (inactive)
[13]
  GI50: > 100 µM (inactive)
[14]
  GI50: > 100 µM (inactive)
[15]
  GI50: > 100 µM (inactive)
[16]
  GI50: > 100 µM (inactive)
[17]
  GI50: > 100 µM (inactive)
[18]
  GI50: > 100 µM (inactive)
[19]
  GI50: > 100 µM (inactive)
[20]
  GI50: > 100 µM (inactive)
[21]
  GI50: > 100 µM (inactive)
[22]
  GI50: > 100 µM (inactive)
[23]
  GI50: > 100 µM (inactive)
[24]
  GI50: > 100 µM (inactive)
[25]
  GI50: > 100 µM (inactive)
[26]
  GI50: 78.2 µM (inactive)
[27]
  GI50: > 100 µM (inactive)
[28]
  GI50: > 100 µM (inactive)
[29]
  GI50: > 100 µM (inactive)
[30]
  GI50: > 100 µM (inactive)
[31]
  GI50: > 100 µM (inactive)
[32]
  GI50: > 100 µM
[33]
  GI50: > 100 µM (inactive)
[34]
  GI50: > 100 µM (inactive)
[35]
  GI50: > 100 µM (inactive)
[36]
  GI50: 3.91 µM (inactive)
[37]
  GI50: > 100 µM (inactive)
[38]
  GI50: > 100 µM (inactive)
[39]
  GI50: > 100 µM (inactive)
[40]
  GI50: > 100 µM (inactive)
[41]
  GI50: > 100 µM (inactive)
[42]
  GI50: > 100 µM (inactive)
[43]
  GI50: > 100 µM (inactive)
[44]
  GI50: > 100 µM (inactive)
[45]
  GI50: > 100 µM (inactive)
[46]
  GI50: > 100 µM (inactive)
[47]
  GI50: > 100 µM (inactive)
[48]
  GI50: 2.82 µM (inactive)
[49]
  GI50: > 100 µM (inactive)
[50]
  GI50: > 100 µM (inactive)
[51]
  GI50: > 100 µM (inactive)
[52]
  GI50: > 100 µM (inactive)
[53]
  GI50: > 100 µM (inactive)
[54]
  GI50: > 100 µM (inactive)
[55]
  GI50: > 100 µM (inactive)
[56]
  GI50: > 100 µM (inactive)
[57]
  GI50: > 100 µM (inactive)

## COc1ccc(C(c2ccc3c(c2)OCO3)N2C(=O)CCC2C(=O)O)cc1 (stereo not given)
[1]
  GI50: > 100 µM (inactive)
[2]
  GI50: > 100 µM (inactive)
[3]
  GI50: > 100 µM (inactive)
[4]
  GI50: > 100 µM (inactive)
[5]
  GI50: > 100 µM (inactive)
[6]
  GI50: > 100 µM (inactive)
[8]
  GI50: > 100 µM (inactive)
[9]
  GI50: > 100 µM (inactive)
[10]
  GI50: > 100 µM (inactive)
[11]
  GI50: > 100 µM (inactive)
[12]
  GI50: > 100 µM (inactive)
[13]
  GI50: > 100 µM (inactive)
[14]
  GI50: > 100 µM (inactive)
[15]
  GI50: > 100 µM (inactive)
[16]
  GI50: > 100 µM (inactive)
[17]
  GI50: > 100 µM (inactive)
[18]
  GI50: > 100 µM (inactive)
[19]
  GI50: > 100 µM (inactive)
[58]
  GI50: > 100 µM (inactive)
[20]
  GI50: > 100 µM (inactive)
[21]
  GI50: > 100 µM (inactive)
[22]
  GI50: > 100 µM (inactive)
[23]
  GI50: > 100 µM (inactive)
[24]
  GI50: > 100 µM (inactive)
[25]
  GI50: > 100 µM (inactive)
[26]
  GI50: > 100 µM (inactive)
[27]
  GI50: > 100 µM (inactive)
[28]
  GI50: > 100 µM (inactive)
[29]
  GI50: > 100 µM (inactive)
[30]
  GI50: > 100 µM (inactive)
[31]
  GI50: > 100 µM (inactive)
[32]
  GI50: > 100 µM
[33]
  GI50: > 100 µM (inactive)
[34]
  GI50: > 100 µM (inactive)
[35]
  GI50: > 100 µM (inactive)
[36]
  GI50: > 100 µM (inactive)
[37]
  GI50: > 100 µM (inactive)
[59]
  GI50: > 100 µM (inactive)
[38]
  GI50: > 100 µM (inactive)
[39]
  GI50: > 100 µM (inactive)
[40]
  GI50: > 100 µM (inactive)
[41]
  GI50: > 100 µM (inactive)
[42]
  GI50: > 100 µM (inactive)
[43]
  GI50: > 100 µM (inactive)
[44]
  GI50: > 100 µM (inactive)
[45]
  GI50: > 100 µM (inactive)
[46]
  GI50: > 100 µM (inactive)
[47]
  GI50: > 100 µM (inactive)
[48]
  GI50: > 100 µM (inactive)
[49]
  GI50: > 100 µM (inactive)
[50]
  GI50: > 100 µM (inactive)
[51]
  GI50: > 100 µM (inactive)
[52]
  GI50: > 100 µM (inactive)
[53]
  GI50: > 100 µM (inactive)
[54]
  GI50: > 100 µM (inactive)
[55]
  GI50: > 100 µM (inactive)
[56]
  GI50: > 10 µM (inactive)
[57]
  GI50: > 100 µM (inactive)
